Test results from patent publication US20190070165A1, “N-HYDROXYISOQUINOLINEDIONE INHIBITORS OF HBV REPLICATION” (Saint Louis University, priority 2016, published 2019).
Like-named read-outs stand apart in the source and are kept apart here.

Columns and labels:
[1] = target: T1, human RNaseH1 (Homo sapiens, UniProt O60930); experiment: Oligonucleotide-directed RNA cleavage assay, human RNaseH1; assay type: biochemical; details: for IC50: Table 1, quantitative values
T1 construct: made in house; host or cells: E. coli
T1 sequence (O60930 1-286): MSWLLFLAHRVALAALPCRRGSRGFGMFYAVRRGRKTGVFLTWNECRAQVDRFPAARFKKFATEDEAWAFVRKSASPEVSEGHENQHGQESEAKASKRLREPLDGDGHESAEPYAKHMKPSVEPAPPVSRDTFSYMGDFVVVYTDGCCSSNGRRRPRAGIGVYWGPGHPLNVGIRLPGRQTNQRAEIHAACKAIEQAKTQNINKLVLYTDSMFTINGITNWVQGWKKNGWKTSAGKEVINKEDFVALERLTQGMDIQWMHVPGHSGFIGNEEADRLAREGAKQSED
From the text: RNaseH expression and purification.
Oligonucleotide-directed RNA cleavage assay.

[2] = system: HBV replication; experiment: HBV replication inhibition assay in HepDES19 cells (strand-preferential q-PCR); assay type: cell-based, Hepatitis B virus; details: for EC50: Hepatitis B virus
Method: HBV replication assay. […] Cells were seeded into 6-well plates and incubated in DMEM/F12, 10% fetal bovine serum (FBS), 1% penicillin/streptomycin (P/S) with 1 μg/mL tetracycline. Tetracycline was withdrawn after 24 hours. The test compound was applied to duplicate wells 48 hours later in medium containing a final DMSO concentration of 1%, and medium containing the compound was refreshed daily for the following two days. Cells were harvested and non-encapsidated nucleic acids were digested with micrococcal nuclease (New England Biolabs). HBV DNA was purified from capsids using QIAamp Cador Pathogen Mini Kit (Qiagen) with proteinase K incubation overnight at 37° C. TaqMan PCR was performed for 40 cycles at an annealing temperature of 60° C.
Thirty-nine HID, HPD, flutimide, and related POH compounds (Structures shown in FIG. 3) were screened for their ability to inhibit HBV replication in HepDES19 cells. […] Inhibition was calculated as the amount of plus-polarity DNA relative to the DMSO treated controls.
Briefly, HepDES19 were seeded in 12-well plates at 2×10^5 cells per well in the absence of tetracycline. Test compound was applied to cells 48 hours after removal of tetracycline. […] HBV DNA was purified from capsids using a QIAamp pathogen minikit with proteinase K digestion extended to overnight at 37° C. TaqMan PCR was performed for 40 cycles with an annealing temperature of 60° C.

[3] = MTT cytotoxicity assay; assay type: cell-based; details: human; Table 2, HepDES19 cells
Method: MTT cytotoxicity assays. 1.0×10^4 HepDES19 cells per well were seeded in 96-well plates and incubated in DMEM with 10% FBS plus 1% P/S, 1% non-essential amino acids, and 1% glutamine. Compounds were diluted in medium to the indicated concentrations plus 1% DMSO and added to cells 24 hours after plating, with each concentration tested in triplicate. Medium containing the compound was refreshed daily for the next two days. Thiazolyl blue tetrazolium bromide (MTT, Sigma-Aldrich) was added to 0.25 mg/mL, the cultures were incubated for 60 minutes, metabolites were solubilized in acidic isopropanol, and absorbance was read at 570 nm.

[4] = system: HSV-1; experiment: HSV-1 replication inhibition assay in Vero cells; assay type: cell-based, herpes simplex virus 1; details: read-out: HSV-1 suppression (log10 at 5 μM), class symbol
Method: Thirty-seven compounds were counter-screened for efficacy against HSV-1 to evaluate specificity of the inhibitors and to help determine if the efficacy against HBV replication may be due to an unsuspected indirect effect on the cells. Vero cells infected with HSV-1 at an MOI of 0.1 were treated with 5 μM of compound for 24 hours. Inhibition was calculated as log 10 suppression of plaque forming units compared with DMSO vehicle control.
Vero cells were maintained DMEM supplemented with 3% newborn calf serum, 3% bovine growth serum, 2 mM L-glutamine, and P/S. Test compounds were applied to the cells in the presence of 0.05% DMSO. The herpes simplex virus 1 (HSV-1) strain used for screening was a de-identified clinical isolate from the Saint Louis University Hospital passaged once in culture.
Compounds and virus were diluted in phosphate buffered saline (PBS) containing 2% newborn calf serum and 2 mM L-glutamine so that the final concentration of compound was 5 μM. The cells were incubated at 37° C. for 1 hour with the virus containing inoculum, then the inoculum was removed and the wells were washed once in PBS. Compound diluted to 5 μM in supplemented DMEM was added and cells were incubated at 37° C. for an additional 23 hours. The plates were then microscopically inspected for cytopathic effect (CPE) or toxicity and then frozen at −80° C. Virus titers for wells with limited CPE compared to DMSO vehicle-treated controls were then determined by plaque assay on Vero cells. Each experiment was repeated at least once.

[5] = target: T2, HBV RNaseH (Hepatitis B virus genotype D subtype ayw, UniProt P03156); details: for HBV RNaseH: Table 1, qualitative inhibition in biochemical assay; for Inhibition of HBV RNaseH, Oligonucleotide directed cleavage assay: Table 3, compounds at 100, 60 and 20 μM, compounds 1-91 and 138-140 previously reported (Cai et al., 2014)
Method: RNaseH expression and purification. […] The enriched extracts were dialyzed into 50 mM HEPES pH 7.3, 300 mM NaCl, 20% glycerol, and 5 mM DTT and stored in liquid nitrogen.
Oligonucleotide-directed RNA cleavage assay. […] This mixture was incubated with test compounds in 50 mM Tris pH 8.0, 190 mM NaCl, 5 mM MgCl2, 3.5 mM DTT, 0.05% NP40, 6% glycerol, and 1% DMSO at 42° C. for 90 minutes. Cleavage products were resolved by denaturing polyacrylamide gel electrophoresis, detected by autoradiography, and quantified using ImageJ. Non-specific background values were determined from the incorrect oligonucleotide negative control lane and subtracted from all experimental values. IC50 values were then calculated with GraphPad Prism using three-parameter log(inhibitor) vs. response non-linear curve fitting with the curve minimum set to zero to reflect background subtraction.
The HBV RNaseH inhibition activity of the 16 previously untested compounds was examined using an oligonucleotide-directed cleavage assay. Compounds were incubated with the HBV RNaseH, a ^32P-labeled RNA substrate plus a complementary DNA oligonucleotide and compounds at 100, 60, and 20 μM and the amount of the RNA cleavage products was measured following resolution on an acrylamide gel.
Briefly, a ^32P-labeled RNA was combined with a DNA oligonucleotide and the RNA:DNA substrate was incubated in the presence of the RNaseH and test compounds in 50 mM tris pH 8.0, 190 mM NaCl, 5 mM MgCl2, 3.5 mM DTT, 0.05% NP40, 6% glycerol, and 1% DMSO at 42° C. for 90 minutes. The products were resolved by gel electrophoresis and detected by audioradioagraphy.

[6] = target: T2, HBV RNaseH; experiment: Molecular beacon RNaseH assay; details: for inhibition in the molecular beacon assay: 2.1 μg purified HBV RNaseH; for Inhibition of HBV RNaseH, Molecular Beacon cleavage assay: Table 3, 0 to 500 μM
Method: In this assay, a hairpin DNA oligonucleotide labeled with fluorescein on one end and a quencher on the other is held in a linear conformation by annealing to a complementary RNA; cleavage of the RNA causes the DNA to fold into a hairpin, suppressing fluorescence (FIG. 8A).
The substrate is a hairpin DNA oligonucleotide with a 5′ fluorescein reporter and a 3′ black hole quencher annealed to a complementary RNA oligonucleotide. The reaction was initiated by adding 5 mM Mg^++, and fluorescence was monitored at 37° C. with a Synergy 4 96-well plate reader. Inhibition was qualitatively determined as a dose-dependent reduction in the rate of substrate degradation.

[7] = target: T3, HBV polymerase (Hepatitis B virus genotype D subtype ayw, UniProt P03156); experiment: Endogenous polymerase reaction (EPR) in isolated HBV capsids; assay type: biochemical; details: ddTTP 5.7 μM; for effect on 32P incorporation in EPR: inhibitors at 4× EC50, #138 and #211 at 30 μM
T3 construct: expressed in transfected cells; host or cells: HepDES19 (HepG2 with a stably transfected HBV genotype D genome)
From the text: Anti-RNaseH activity is implied from their preferential suppression of the plus-polarity DNA strand (FIG. 4), but strand-preferential inhibition could also result from inhibiting the polymerase also. This is because positive-polarity DNA synthesis can be suppressed both directly by inhibiting the RNaseH enzyme and indirectly by reducing the amount of negative-polarity DNA strand that templates the positive-polarity strand, whereas minus-polarity DNA synthesis can only be suppressed by chain termination. To determine if the efficacy of these compounds was due to inhibition of the HBV polymerase, capsids isolated from HepDES19 cells were tested in the endogenous polymerase reaction (EPR) to measure DNA chain elongation by the HBV polymerase along the HBV nucleic acids within the capsids. Isolated HBV capsids were supplied with dATP, dTTP, dGTP, and [α^32P]dCTP in the presence of inhibitors at 4× their EC50 values; negative control compounds #138 and #211 were tested at 30 μM. 1% DMSO was used as a vehicle control, and ddTTP (5.7 μM) was the positive control polymerase inhibitor. Samples were incubated at 37° C. for 7 hours to permit DNA chain elongation by the encapsidated HBV polymerase. Nucleic acids were purified, resolved on a 0.8% agarose gel and detected by autoradiography. DNAs from HBV capsids treated with the compounds incorporated ^32P similarly to DMSO control (FIG. 5).
HBV cores were harvested from HepDES19 cells grown in the absence of tetracycline for 20 days using polyethylene glycol 8000 precipitation (Guo et al., 2003). Cells were rinsed in PBS and lysed in 1 mL core lysis buffer with 2 μL of protease inhibitor cocktail (Sigma) at room temperature for 10 minutes. Cell lysates were collected and 10 mM CaCl2) was added. The lysate was centrifuged for 5 minutes at 21,000 g, the supernatant was incubated with 150 U of micrococcal nuclease at 37° C. for 60 minutes, and then 27 mM EDTA was added to stop the reaction. 333 μL of 26% PEG8000 was added to precipitate core particles and incubated at 4° C. for 6 hours. The samples were centrifuged at 21,000 g for 20 minutes at 4° C. The supernatant was removed and the pellet was resuspended in 250 μL of 10 mM Tris buffer pH 7.5. Cores were stored at −80° C.
The endogenous polymerase reaction was done using a modified procedure from (Nguyen et al., 2007). […] These nucleic acids were dissolved in tris-EDTA buffer, resolved on a 0.8% agarose gel, transferred to a HyBondN membrane, and detected by autoradiography. Band intensities for each experiment were quantified using Image J and percent inhibition was calculated relative to the DMSO-treated reactions. Statistical significance of variation in band intensities was evaluated using a one-way ANOVA with a Dunnett post hoc analysis, with p=0.05 indicating significance.

[8] = HepDES19, read-out: HBV replication inhibition (EC50, μm)
[9] = Human alphaherpesvirus 1, 24 h, 5 μM, Vero cells
[10] = Table 2, HepDES19 cells, read-out: EC50

T2 sequence (P03156 671-832): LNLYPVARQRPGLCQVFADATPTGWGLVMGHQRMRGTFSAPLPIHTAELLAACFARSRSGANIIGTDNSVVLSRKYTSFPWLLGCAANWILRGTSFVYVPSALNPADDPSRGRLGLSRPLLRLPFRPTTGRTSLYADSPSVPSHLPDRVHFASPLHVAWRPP
T3 sequence (P03156 whole entry): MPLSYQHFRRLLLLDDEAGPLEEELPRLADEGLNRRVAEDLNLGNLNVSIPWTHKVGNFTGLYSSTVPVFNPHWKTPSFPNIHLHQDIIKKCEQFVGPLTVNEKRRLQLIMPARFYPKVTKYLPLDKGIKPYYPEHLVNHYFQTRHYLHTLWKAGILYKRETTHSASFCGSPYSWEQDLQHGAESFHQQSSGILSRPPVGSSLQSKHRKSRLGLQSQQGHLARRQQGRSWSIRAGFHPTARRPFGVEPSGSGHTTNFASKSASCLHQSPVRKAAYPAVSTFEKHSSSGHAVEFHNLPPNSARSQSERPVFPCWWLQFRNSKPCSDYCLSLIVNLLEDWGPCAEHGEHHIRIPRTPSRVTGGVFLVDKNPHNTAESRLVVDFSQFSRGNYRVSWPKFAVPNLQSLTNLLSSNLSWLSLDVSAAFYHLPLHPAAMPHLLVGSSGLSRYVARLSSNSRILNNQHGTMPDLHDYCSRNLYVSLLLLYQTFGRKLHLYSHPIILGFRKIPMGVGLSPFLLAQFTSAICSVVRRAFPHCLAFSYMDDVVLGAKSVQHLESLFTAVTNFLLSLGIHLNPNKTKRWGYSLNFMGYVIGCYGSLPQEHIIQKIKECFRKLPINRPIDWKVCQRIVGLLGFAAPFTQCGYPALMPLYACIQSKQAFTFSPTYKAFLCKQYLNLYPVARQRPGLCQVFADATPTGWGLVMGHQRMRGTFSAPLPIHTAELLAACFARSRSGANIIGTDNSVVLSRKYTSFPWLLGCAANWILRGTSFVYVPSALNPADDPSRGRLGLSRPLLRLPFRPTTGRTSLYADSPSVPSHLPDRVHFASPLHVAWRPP

SMILES | IC50 [1] | EC50 [2, 8] | CC50 [3] | log reduction at 5 µM [4, 9] | HBV RNaseH [5] | Inhibition of HBV RNaseH, Oligonucleotide directed cleavage assay [5] | inhibition of RNA cleavage by HBV RNaseH ([5]; compounds at 100, 60 and 20 μM) | inhibition in the molecular beacon assay [6] | Inhibition of HBV RNaseH, Molecular Beacon cleavage assay [6] | EC50 [2, 10] | log reduction at 5 µM ([4]; Human alphaherpesvirus 1, Vero, 24 h) | Human RNaseH1 ([1]; Table 1, qualitative inhibition) | HBV replication inhibition / activity ([2]; HepDES19 cells) | HBV replication inhibition (qualitative) ([2]; Table 3, qualitative screen at 20 μM) | effect on 32P incorporation in EPR [7] | reduction of DNA elongation in EPR ([7]; 7 hours, 37° C.)
CCN(CC)C(=O)C1C(=O)N(O)C(=O)c2ccccc21 (stereo not drawn) [Compound 83] | 3.4 µM | 2.3 ± 1.6 µM | > 100 µM | < 1 | +/− | − (No inhibition detected at 100 μM) | negative | inhibited | + (Dose-dependent inhibition at ≤500 μM) | – | – | – | – | – | – | –
O=C(Nc1ccccc1)C1C(=O)N(O)C(=O)c2ccccc21 (stereo not drawn) [Compound 84] | 3.7 µM | 6.5 ± 4.5 µM | – | < 1 | +/− | − (No inhibition detected at 100 μM) | – | – | − (No inhibition detected at 500 μM) | – | – | – | – | – | – | –
O=C(NCc1ccccc1)C1C(=O)N(O)C(=O)c2ccccc21 (stereo not drawn) [Compound 85] | 3.9 µM | 6.5 ± 1.5 µM | – | – | +/− | − (No inhibition detected at 100 μM) | – | – | − (No inhibition detected at 500 μM) | 6.5 µM | < 1 | – | – | – | – | –
COc1ccc(CNC(=O)C2C(=O)N(O)C(=O)c3ccccc32)cc1 (stereo not drawn) [Compound 90] | – | 19 ± 0.9 µM | – | < 1 | – | − (No inhibition detected at 100 μM) | – | – | − (No inhibition detected at 500 μM) | 18 µM | – | ++ (detectable inhibition at 20 μM) | – | – | – | –
O=C(Nc1ccc(F)cc1)C1C(=O)N(O)C(=O)c2ccccc21 (stereo not drawn) [Compound 91] | 8.7 µM | 4.6 ± 1 µM | – | < 1 | – | − (No inhibition detected at 100 μM) | – | – | − (No inhibition detected at 500 μM) | – | – | – | – | – | – | –
CC1CC(=O)N(O)C(COc2ccc(Oc3ccc(Cl)cc3)cc2)C1 (stereo not drawn) [Compound 211, Rilopirox, reference compound] | – | – | – | < 1 | – | − (No inhibition detected at 100 μM) | – | had no effect on the rate of substrate degradation | − (No inhibition detected at 500 μM) | – | – | – | inactive | − (No inhibition detected at 20 μM) | None of the HBV inhibitors or the two negative control compounds (#138 and 211) significantly altered incorporation | –
Cc1cn([C@H]2CC[C@@H](COP(=O)(O)OP(=O)(O)OP(=O)(O)O)O2)c(=O)[nH]c1=O [ddTTP] | – | – | – | – | – | – | – | – | – | – | – | – | – | – | strongly inhibited | ~90%
